Data on one molecule can be found in patent publication US20250197424A1, “QUINOLINE COMPOUND AND USE THEREOF” (SHANGHAI PHARMACEUTICALS HOLDING CO., LTD., priority 2022, published 2025).

Structures can show the parent of a compound that is named as a salt.

Series [1] concerns Panc-1 (KRASG12D pancreatic cancer cell) CDX model. In kind it is in vivo, Nu/Nu nude mice. The method, then: Female Nu/Nu nude mice, approximately 8 to 10 weeks old, (Beijing Vital River Laboratory Animal Technology Co., Ltd) were used in these studies. The animals were maintained in individually ventilated cages with a 12-hour light/dark cycle. Food and water were available ad libitum. Panc-1 tumor cells were maintained in vitro at 37° C. in an atmosphere containing 5% CO2 using DMED medium supplemented with 10% fetal bovine serum. Prior to tumor inoculation, cells in the exponential growth phase were harvested and quantified using a cell counter. Panc-1 tumor cells (1×10^7) in 0.2 mL PBS were subcutaneously inoculated into the right flank of each mouse. Randomization was initiated when the average tumor size reached approximately 154.21 mm^3. A total of 9 tumor-bearing mice were enrolled in the study, and these mice were allocated into […] (3 mice per group). Additionally, 3 non-tumor-bearing mice were assigned to the untreated group.
The animals were treated […] via intravenous injection (I.V.) with either a vehicle (10% HP-β-CD) or the vehicle containing the indicated dose of the compound, for approximately 28 days (QD×28 I.V.), or until ethical endpoints were reached (BWL>20%; median tumor volume (MTV)>2000 mm^3; individual TV>3000 mm^3; clinical signs of discomfort). […]
Tumor volume was measured in two dimensions using calipers twice weekly after randomization, and the volume was calculated in mm^3 using the formula: V=(L×W×W)×0.5, where V is the tumor volume, L is the tumor length (the longest tumor dimension), and W is the tumor width (the longest tumor dimension perpendicular to L). […] Tumor growth inhibition (TGI %) was calculated using the formula: TGI %=[1−(Ti/Ci)]×100, where Ti is the median tumor volume in the treatment group on the measurement day, and Ci is the median tumor volume in the control group on the measurement day.

For series [2], the target named is GTP-KRAS-WT:SOS1 (Homo sapiens (Human), UniProt P01116). Put plainly: KRAS_WT and SOS1 binding inhibition (KRAS-WT/SOS1 binding kit, 665/615 ratio). Conditions: GTP 10 μM. From the text: To detect the inhibitory capability of small molecule compounds on the binding activity between KRAS_WT and SOS1 using a drug screening system based on the binding of KRAS_WT and SOS1 interaction.
Chain of GTP-KRAS-WT:SOS1 (P01116-2 other isoform, or with tags, fused parts or gaps): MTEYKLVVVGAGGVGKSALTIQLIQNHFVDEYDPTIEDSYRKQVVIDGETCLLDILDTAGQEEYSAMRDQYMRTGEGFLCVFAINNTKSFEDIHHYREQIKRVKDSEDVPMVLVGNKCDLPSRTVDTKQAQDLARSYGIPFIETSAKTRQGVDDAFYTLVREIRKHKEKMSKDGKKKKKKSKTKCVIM
a) BI-2852 was used as a positive control, with its stock solution as the first dilution point, followed by a 3-fold dilution, making a total of 10+0 dilutions. Similarly, the first dilution point of the test compounds was also their respective stock solutions, followed by a 3-fold dilution, making a total of 11+0 dilutions. Using Echo, 0.2 μL of the gradient-diluted compound solutions were transferred into a 384-well plate, with each compound tested in duplicate. The final DMSO concentration was 1%. The plate was centrifuged at 1000 rpm for 1 minute. The final concentrations of the positive controls were 100, 33.33, 11.11, 3.70, 1.23, 0.412, 0.137, 0.046, 0.015, 0.005, and 0 μM. The final concentrations of the test compounds were […], 0.01, and 0 μM.
b) KRAS_WT from the kit was prepared with GTP at a final concentration of 10 μM in the dilution buffer, and 5 μL was transferred into the 384-well reaction plate. The plate was centrifuged at 1000 rpm for 1 minute.
c) Subsequently, 5 μL of the SOS1 mixture was transferred into the 384-well reaction plate. The plate was centrifuged at 1000 rpm for 1 minute and incubated at 25° C. for 15 minutes.
d) 10 μL of the detection mixture was transferred into the 384-well reaction plate. The plate was centrifuged at 1000 rpm for 1 minute and incubated overnight at 4° C.
e) The […] and emission wavelength at 615 nm were read using an Envision multimode plate reader. The 665/615 ratio signal intensity was used to characterize the enzyme activity.
(§1) The IC50 of the compounds was fitted using a nonlinear regression equation with GraphPad Prism 8. The results are presented in Table 2: • Negative control: DMSO • Positive control: 100 μM BI-2852
(§2) The following nonlinear fitting formula was used to obtain the IC50 (half-maximal inhibitory concentration) of the compounds:
(§3) [formula] • X: logarithm of the compound concentration • Y: 665/615 Ratio

For series [3], the target named is GTP-KRAS-G12D:CRAF (Homo sapiens (Human), UniProt P01116, G12D). The series can be described thus: GTP-KRAS-G12D:CRAF binding inhibition. The method, then: The IC50 of the compounds was fitted using a nonlinear regression equation with GraphPad Prism 8. The results are presented in Table 2: • Negative control: DMSO • Positive control: 100 μM BI-2852 The following nonlinear fitting formula was used to obtain the IC50 (half-maximal inhibitory concentration) of the compounds: [formula] • X: logarithm of the compound concentration • Y: 665/615 Ratio
Chain of GTP-KRAS-G12D:CRAF (P01116-2 other isoform, or with tags, fused parts or gaps G12D): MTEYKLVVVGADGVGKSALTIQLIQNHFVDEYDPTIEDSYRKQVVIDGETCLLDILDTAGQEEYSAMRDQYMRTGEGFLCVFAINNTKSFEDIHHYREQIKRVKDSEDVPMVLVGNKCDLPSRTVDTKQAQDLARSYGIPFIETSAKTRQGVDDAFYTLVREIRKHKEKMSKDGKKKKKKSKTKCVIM

The target in series [4] is GTP-KRAS-G12D:SOS1 (Homo sapiens (Human), UniProt P01116, G12D). The series can be described thus: GTP-KRAS-G12D:SOS1 binding inhibition. As for the experimental part: as §1, §2, §3
Chain of GTP-KRAS-G12D:SOS1 (P01116-2 other isoform, or with tags, fused parts or gaps G12D): as above

Usually IC50 stands for the concentration at which inhibition is half-maximal. Regarding `CCc1cccc2cc(O)cc(-c3c(F)c4c5c(nc(OC[C@@]67CCCN6C[C@H](F)C7)nc5c3F)N3CC5CCC(N5)C3CO4)c12` (single isomer, unassigned) [Compound 5a, (S or R)-4-((5aS,6S,9R)-1,3-Difluoro-13-(((2R,7aS)-2-fluorotetrahydro-1H-pyrrolizin-7a(5H)-yl)methoxy)-5a,6,7,8,9,10-hexahydro-5H-6,9-epiminoazepino[2′,1′:3,4][1,4]oxazepino[5,6,7-de]quinazolin-2-yl)-5-ethylnaphthalen-2-ol dihydrochloride], the “TGI (%) Day 28” value in series [1] (Panc-1 KRASG12D in Nu/Nu, 10 mg/kg QD IV, Day 28) was found to be 96%. Moreover, the “BWL (%) Day 14” value in series [1] (mouse, in vivo, iv, 10 mg/kg) is given as −0.77%. The “BWL (%) Day 28” value in series [1] (mouse, in vivo, iv, 10 mg/kg) is given as −1.58%. The 50% inhibitory concentration (IC50) came out at 11.4 nM in series [2], 5.81 nM in series [3] and 14.5 nM in series [4].
